Measured values taken from patent US6696461B2, “Tricyclic imidazopyridines” (Altana Pharma AG, priority 2000, dated 2004).

Test system: not given
Experiment: not given
Conditions: not given
Compound COCCO[C@@H]1c2c(COC)cn3c(C)c(C)nc3c2N[C@H](c2ccccc2)[C@H]1O [Example 19, (7R,8R,9R)-8-Hydroxy-7-(2-methoxyethoxy)-6-methoxymethyl-2,3-dimethyl-9-phenyl-7,8,9,10-tetrahydroimidazo[1,2-h][1,7]naphthyridine] has a melting point of 158 to 160 °C. In the case of COCCO[C@H]1c2c(COC)cn3c(C)c(C)nc3c2N[C@H](c2ccccc2)[C@H]1O [Example 20, (7S,8R,9R)-8-Hydroxy-7-(2-methoxyethoxy)-6-methoxymethyl-2,3-dimethyl-9-phenyl-7,8,9,10-tetrahydroimidazo[1,2-h][1,7]naphthyridine], the melting point is reported as 158 to 160 °C (dec.). In the case of CCO[C@H]1c2c(COC)cn3c(C)c(C)nc3c2N[C@H](c2ccccc2)[C@H]1O [Example 22, (7S,8R,9R)-8-Hydroxy-7-ethoxy-6-methoxymethyl-2,3-dimethyl-9-phenyl-7,8,9,10-tetrahydroimidazo[1,2-h][1,7]naphthyridine], the melting point is reported as 163 to 164 °C (dec.). In the case of CCO[C@@H]1c2c(COC)cn3c(C)c(C)nc3c2N[C@H](c2ccccc2)[C@H]1O [Example 21, (7R,8R,9R)-8-Hydroxy-7-ethoxy-6-methoxymethyl-2,3-dimethyl-9-phenyl-7,8,9,10-tetrahydroimidazo[1,2-h][1,7]naphthyridine], the melting point is reported as 184 to 186 °C (dec.). In the case of COCc1cn2c(C)c(C)nc2c2c1[C@H](O)[C@H](O)[C@@H](c1ccccc1)N2 [Example 15, (7S,8R,9R)-7,8-Dihydroxy-6-methoxymethyl-2,3-dimethyl-9-phenyl-7,8,9,10-tetrahydroimidazo[1,2-h][1,7]naphthyridine], the melting point is reported as 182 to 183 °C (dec.). In the case of COCc1cn2c(C)c(C)nc2c2c1[C@H](OC)[C@H](O)[C@@H](c1ccccc1)N2 [Example 17, (7S,8R,9R)-8-Hydroxy-7-methoxy-6-methoxymethyl-2,3-dimethyl-9-phenyl-7,8,9,10-tetrahydroimidazo[1,2-h][1,7]naphthyridine], the melting point is reported as 126 to 129 °C (dec.).

Test system: pentagastrin-stimulated acid secretion of the perfused rat stomach
Experiment: Secretion-inhibiting action on the perfused rat stomach (pentagastrin-stimulated acid secretion, i.v. administration in vivo)
Conditions: anesthetized CD rat, dose 3 μmol/kg i.v.
Source text: Testing of the Secretion-inhibiting Action on the Perfused Rat Stomach
In Table A which follows, the influence of the compounds according to the invention on the pentagastrin-stimulated acid secretion of the perfused rat stomach after intravenous administration in vivo is shown.
The abdomen of anesthetized rats (CD rat, female, 200-250 g; 1.5 g/kg i.m. urethane) was opened after tracheotomy by a median upper abdominal incision and a PVC catheter was fixed transorally in the esophagus and another via the pylorus such that the ends of the tube just projected into the gastric lumen. The catheter leading from the pylorus led outward into the right abdominal wall through a side opening.
After thorough rinsing (about 50-100 ml), warm (37° C.) physiological NaCl solution was continuously passed through the stomach (0.5 ml/min, pH 6.8-6.9; Braun-Unita 1). The pH (pH meter 632, glass electrode EA 147; φ=5 mm, Metrohm) and, by titration with a freshly prepared 0.01N NaOH solution to pH 7 (Dosimat 665 Metrohm), the secreted HCl were determined in the effluent in each case collected at an interval of 15 minutes.
The gastric secretion was stimulated by continuous infusion of […] (=1.65 ml/h) of i.v. pentagastrin (left femoral vein) about 30 min after the end of the operation (i.e. after determination of 2 preliminary fractions). […]
In the case of COCc1cn2c(C)c(C)nc2c2c1[C@H](OC)[C@H](O)[C@@H](c1ccccc1)N2 [Example 17, (7S,8R,9R)-8-Hydroxy-7-methoxy-6-methoxymethyl-2,3-dimethyl-9-phenyl-7,8,9,10-tetrahydroimidazo[1,2-h][1,7]naphthyridine], the “Inhibition of acid secretion” value is reported as 100%.
